# According to patent publication US10697020B2, “MicroRNA-129 as a biomarker for colorectal cancer” (THE RESEARCH FOUNDATION FOR THE STATE UNIVERSITY OF NEW YORK, priority 2013, dated 2020):
# Assays:
# BCL2 = test: Western immunoblot analysis of BCL2 protein after miRNA/siRNA transfection; assay type: cell-based, human; details: HCT116, RKO and SW480 cells; 100 nM transfected; 48 h; vs negative control miRNA
# Description: (§1) HCT116, RKO and SW480 cells were plated in 6-well plates at 2×10^5, 1×10^5 and 1×10^5 per well, respectively. Twenty-four hours after plating, 100 nM of miR-129 precursor (Ambion, Carlsbad, Calif., USA) or siRNA against BCL2 (Dharmacon, Lafayette, Colo., USA) were transfected to the cells with oligofectamine (Invitrogen, Carlsbad, Calif., USA) in accordance with the manufacturer's protocol. Negative miRNA (Ambion) was also transfected as a negative control.
# (§2) Forty-eight hours after transfection, cells were lysed with RIPA buffer (Sigma-Aldrich), and Western immunoblotting was performed using standard procedures. The primary antibodies used for the analysis were mouse anti-human BCL2 antibody (1:200; Thermo Fisher Scientific, Fremont, Calif., USA), rabbit anti-human cleaved caspase-3 antibody (1:200; Cell Signaling Technology, Beverly, Mass., USA), rabbit anti-human cleaved caspase-9 antibody (1:200; Cell Signaling Technology), mouse anti-human E2F3 antibody (1:5000; Millipore, Billerica, Mass., USA), mouse anti-human TS antibody (1:400; Millipore), mouse anti-human GAPDH antibody (1:1000, Santa Cruz Biotechnology, Santa Cruz, Calif., USA) or mouse anti-human α-tubulin antibody (1:1000; Millipore). […] HRP activity was detected with SuperSignal West Pico Chemiluminescent Substrate (Thermo Fisher Scientific) and visualized in an UVP Bioimaging system.
# E2F3 = test: Western immunoblot analysis of E2F3 protein in HCT116 cells; assay type: cell-based, human; details: HCT116 cells after miR-129 transfection
# Description: as §1, §2
# RKO cells [1] = test: Cell proliferation assay (WST-1), RKO; assay type: cell-based, human; details: day 5
# Description: as §1
# (§3) Twenty-four hours after transfection, cells were seeded in 96-well plates at a density of 2000 cells per well. The cell proliferation assay was performed on days 1, 3 and 5 by incubating 10 μl WST-1 (Roche Applied Science, Mannheim, Germany) in the culture medium for 1 h and reading the absorbance at 450 and 630 nm. The cell proliferation rate was calculated by […]. Experiments for the cell proliferation assay were performed at least three times.
# [2] = test system: 84 genes involved in cell death pathways; test: Cell Death PathwayFinder PCR Array (real time qRT-PCR); assay type: cell-based, human; details: miR-129 transfected vs negative miRNA transfected cells
# Source text: RNAs were extracted from cells transfected with either precursor miR-129 or negative miRNA using TRIzol reagent (Invitrogen) in accordance with the manufacturer's protocol. RNAs were transcribed to first-strand cDNA using the RT^2 First Strand Kit (SABiosciences, Qiagen, Venlo, Netherlands). Next, the cDNA is mixed with RT^2 SYBR Green Mastermix (SABiosciences), and this mixture is aliquoted into the wells of the Cell Death PathwayFinder PCR Array (PAHS-212Z). Applied Biosytems 7500 Real-Time PCR machine was used for qRT-PCR, and relative expression values were determined using the ΔΔCT method.
# RKO cells [3] = test: Cell cycle analysis (flow cytometry), RKO; assay type: cell-based, human; details: 36 h after transfection
# Description: as §1
# (§4) Thirty-six hours after transfection, cells were harvested and resuspended at 0.5 to 1×10^6 cells/m in modified Krishan buffer supplemented with 0.02 mg/ml RNase H (Invitrogen) and 0.05 mg/ml propidium iodide (Sigma-Aldrich, St. Louis, Mo., USA) (See, Krishan A. The Journal of Cell Biology. 1975; 66(1):188-93). Stained cells were detected by flow cytometry and results were analyzed with Modfit LT™ software. The experiments for cell cycle analysis were performed at least three times.
# HCT116 cells [4] = test: Cell cycle analysis (flow cytometry), HCT116; assay type: cell-based, human; details: 36 h after transfection
# Description: as §1, §4
# HCT116 cells [5] = test: Cell proliferation assay (WST-1), HCT116; assay type: cell-based, human; details: day 5
# Description: as §1, §3
# [6] = test system: cleaved caspase-3 and cleaved caspase-9; test: Western immunoblot analysis of cleaved caspases in HCT116 cells; assay type: cell-based, human; details: HCT116 cells with ectopic expression of miR-129
# Description: as §1, §2
# [7] = test system: Colon cancer stem cells, i.e., CD133^+HICD44^+HI cells; test: Colon cancer stem cell tumor xenograft in NOD/SCID mice; assay type: in vivo
# Description: FIG. 3. miR-129 suppresses colorectal cancer cell growth and induces cell cycle arrest. (a) HCT116, […] and SW480 cells were transfected with either miR-129 or negative miRNA, and cell numbers were measured with WST-1 assay at days 1, 3 and 5. Cell cycle analysis was performed to determine the impact of miR-129. The representative flow cytometry pattern was shown in (b) and the G1/S and G2/S ratios were shown in (c) (n=3). (d) Colon cancer stem cells, i.e., CD133^+HICD44^+HI cells were subcutaneously injected into NOD/SCID mice (1×10^4 cells). Mice were treated with either (top left) control lentiviral GFP vector and lentiviral miR-129 expressing construct (n=5) or (top right) mice were injected with negative miRNA (n=5) or miR-129 precursor (n=5) at 1.25 nmol per injection. Tumor sizes were then analyzed 7 weeks after initial treatment (lentiviral or injection). […] Scale bar: 1 cm. (bottom left) Quantitative analysis of colon cancer stem cells in tumor xenografts transfected with lentiviral miR-129 or control constructs reveal a significant reduction in tumor size. (bottom right) Quantitative analysis of colon cancer stem cells in tumor xenografts transfected with control and miR-129 precursor RNA.
# SW480 cells = test: Cell proliferation assay (WST-1), SW480; assay type: cell-based, human; details: day 5
# Description: as §1, §3
substance,measurement,setting,value
miR-129: nucleic acid having a sequence of CUUUUUGCGGUCUGGGCUUGC (SEQ ID NO. 1); miR-129 precursor from Ambion used (chemistry not given here; listed as Homo sapiens),BCL2 protein expression,BCL2,reduced the BCL2 protein expression
same,E2F3 protein levels,E2F3,reduce E2F3 protein levels
same,cell proliferation reduced compared to negative controls,RKO cells [1],43.9%
same,Fold change (miR-129/neg),[2]; gene APAF1,2.44
same,Fold change (miR-129/neg),[2]; gene BAX,27.77
same,Fold change (miR-129/neg),[2]; gene BCL2A1,0.04
same,Fold change (miR-129/neg),[2]; gene BIRC3,0.28
same,Fold change (miR-129/neg),[2]; gene CASP2,7.68
same,Fold change (miR-129/neg),[2]; gene CASP3,1.27
same,Fold change (miR-129/neg),[2]; gene CASP7,4.75
same,Fold change (miR-129/neg),[2]; gene CASP9,2.53
same,Fold change (miR-129/neg),[2]; gene MCL1,3.81
same,Fold change (miR-129/neg),[2]; gene PARP2,0.47
same,cell cycle arrest (G1/S and G2/S ratios),RKO cells [3],at G1 checkpoint
same,cell cycle arrest (G1/S and G2/S ratios),HCT116 cells [4],reached significance at G2 checkpoint
same,cell proliferation reduced compared to negative controls,HCT116 cells [5],41.2%
same,protein levels of cleaved caspase-9 and cleaved caspase-3,[6],elevated the protein levels
same,tumor size,"[7]; delivery via lentiviral miR-129 expressing construct vs control lentiviral GFP vector, 7 weeks",reduces tumor size significantly
same,tumor size,"[7]; injection of miR-129 precursor at 1.25 nmol per injection vs negative miRNA, 7 weeks after initial treatment",reduces tumor size significantly
same,cell proliferation reduced compared to negative controls,SW480 cells,44.7%
